Data from US8853215B2, “Derivatives of N-acyl-N′-phenylpiperazine useful (inter alia) for the prophylaxis or treatment of diabetes” (Takeda Pharmaceutical Company Limited, priority 2009, dated 2014).

Columns and labels:
human RBP4 = human RBP4 (Homo sapiens (Human), UniProt P02753); assay: Binding assay by Retinol-RBP4-TTR ELISA; conditions: for IC50: retinol 50 nM, His-tagged human RBP4, biotinylated human TTR, read-out: human RBP4 binding inhibitory activity (IC50 nM); for inhibition at 10 µM: at 10 μM compound, read-out: human RBP4 binding inhibitory activity(% at 10 μM)
Experimental: The action of the compound of the present invention to inhibit binding of RBP4 and retinol and TTR was evaluated using the Retinol-RBP4-TTR ELISA system shown below.
1F: Binding Assay by Retinol-RBP4-TTR ELISA
This ELISA system detects a complex of RBP4 and TTR based on a retinol-dependent binding of RBP4 to TTR.
His-tagged human RBP4 used was prepared in the above-mentioned 1C.
Biotinylate human TTR used was prepared in the above-mentioned 1E.
Streptavidin (20 μl) (10 μg/ml Streptavidin type II (Wako Pure Chemical Industries, Ltd.), 10 mM Tris-HCl (pH 7.5), 10 mM NaCl) was added to a 384 well black plate (Nunc MaxiSorp, Thermo Fisher Scientific Inc.), and the plate was subjected to centrifugation (1000 rpm, 1 min) and coated overnight at 4° C. The plate was washed twice with PBST (PBS, 0.05% Tween 20, 100 μl/well) and blocked with 25% Block Ace (Snow Brand Milk Products Co., Ltd., PBS, 100 μl/well). The plate was subjected to centrifugation (1000 rpm, 1 min) and incubated at room temperature for 4 hr or overnight at 4° C. The plate was washed twice with PBST (PBS, 0.05% Tween 20, 100 μl/well), and biotinylate human TTR (stock solution concentration 1.0 mg/ml) diluted 750-fold with PBST was added at 20 μl/well. The plate was subjected to centrifugation (1000 rpm, 1 min) and stood still at room temperature for 1.5 hr or overnight at 4° C. The plate was washed 3 times with PBST (100 μl/well), and His-tagged human RBP4 (stock solution concentration 0.96 mg/ml) diluted 4000-fold with a reaction buffer (50 mM Tris-HCl, 150 mM NaCl, 0.005% Tween 20, 1 mM DTT, 0.1% BSA) was added at 10 μl/well. The dilution series (8 doses from 10 mM, 200-fold concentration) of the compound was prepared with DMSO, and 1 μl of each was added to a reaction buffer (200 μl) containing retinol (50 nM) (Sigma-Aldrich Co.). A reaction buffer (200 μl) containing retinol and added with DMSO was used as a positive control, and reaction buffer (200 μl) free of retinol and added with DMSO was used as a negative control. Mixed solutions of retinol and the compound were added to the plate at 15 μl/well. The plate was stirred in a platemixer subjected to centrifugation (1000 rpm, 1 min) and reacted at room temperature for 2 hr. A 35% Block Ace solution diluted with the reaction buffer was added at 10 μl/well, centrifuged (1000 rpm, 1 min) and reacted at room temperature for 30 min. The plate was washed 3 times with PBST (100 μl/well) and SuperSignal ELISA Femto Maximum Sensitivity Substrate reagent (PIERCE, Thermo Fisher Scientific Inc.) was added at 30 μl/well, and the luminescence was measured by a platereader (Wallac).
The binding inhibitory activity of the compound was determined by 100×(positive control value-test compound value)/(positive control value-negative control value). The binding activity (IC50) was calculated from the binding inhibitory rate at each compound concentration using a graph drawing software, GraphPad Prism (GraphPad Software Inc.).

RBP4 = RBP4 (Mus musculus (Mouse), UniProt Q00724); assay: Single administration test in mice, plasma RBP4 by ELISA; assay type: in vivo; conditions: male C57BL/6J or ICR mice, 50 mg/kg oral single dose, mean±SD; for RBP4 (% of initial/Control) 0 hr: 0 hr (just before the administration); for RBP4 (% of initial/Control) 4 hr: 4 hr after administration; for RBP4 (% of initial/Control) 7 hr: 7 hr after administration; for RBP4 (% of initial/Control) 24 hr: 24 hr after administration
Experimental: The action of the compounds of the present invention to reduce plasma RBP4 level was evaluated using the animal model shown below.
Male C57BL/6J and ICR mice were purchased from Charles River (Japan) and maintained on a normal diet (CE2, CLAE Japan, Inc.) and tap water. Animals were housed in a temperature-controlled room adjusted to a 12-hour light/12-hour dark cycle beginning at 7:00 and 19:00, respectively. All procedures were conducted according to the experimental animal care use committee of Takeda Pharmaceutical Company.
Male 6-12-week-old C57BL/6J or ICR mice were housed individually and fed CE2 for 4-6 days. After acclimatization, mice were divided into groups based on their body weight. Compounds were suspended in 0.5% (w/v) methylcellulose in water and given orally to mice at a dose of 50 mg/10 mL/kg of body weight (three to five mice per group). Blood samples were obtained from orbital vein with sodium heparin as an anticoagulant at time 0 hr (just before the administration), 4 hr, 7 hr, and 24 hr after the administration, followed by plasma separation by centrifugation. Plasma RBP4 levels were measured by enzyme-linked immunosorbent assay described in the following section.
Plasma samples were analyzed in duplicate for RBP4 by an enzyme-linked immunosorbent assay. Mouse recombinant RBP4 (Takeda Pharmaceutical Company) was used as standards, and the assay range was 0.313-20 ng/ml. Samples were diluted 10,000-fold with phosphate-buffered saline (PBS) (Sigma) containing 10% (w/v) BlockAce (Dainippon Sumitomo Pharma Co., Ltd). Rabbit anti-RBP4 polyclonal antibody (100 μL/well of 50 μg/mL, Hokudo Co, Ltd) was incubated in a 96-well plate (Nalge Nunc International K.K.) for overnight at 4° C. Subsequently, the plates were washed with PBS-T (Wako Pure Chemical Industries, Ltd.) and blocked with PBS containing 25% BlockAce for 1 hr at room temperature. After another washing with PBS-T, samples and standards were applied to the well, and the plates were incubated for 2 hr at room temperature. After a washing the wells, peroxidase-labeled (Dojindo Laboratories) anti-RBP4 (100 μL/well) was added to the wells, and then the plates were incubated for 1 hr at room temperature. After a final washing with PBS-T, substrate solution 3,3,5,5-tetramethylbenzidine (Sigma) was added to the wells, and the plates were placed in the dark for 5-20 min at room temperature. The reaction was stopped with 0.5 M sulphuric acid and the optical density was measured with a spectrophotometer at 450 nm. The changes in plasma RBP4 levels were expressed as % of initial/Control. All data are presented as mean±SD.

SMILES | IC50 (human RBP4) | RBP4 (% of initial/Control) 0 hr (RBP4) | RBP4 (% of initial/Control) 4 hr (RBP4) | RBP4 (% of initial/Control) 7 hr (RBP4) | RBP4 (% of initial/Control) 24 hr (RBP4) | inhibition at 10 µM (human RBP4)
CC(C)(C)c1ccccc1N1CCN(C(=O)C23CC4CC(CC(C(=O)O)(C4)C2)C3)CC1 [Example 1, 3-{[4-(2-tert-Butylphenyl)piperazin-1-yl]carbonyl}adamantane-1-carboxylic acid] | 95 nM | – | – | – | – | –
CC(C)(C)c1ccccc1N1CCN(C(=O)c2c[nH]cn2)CC1 [Example 3, 1-(2-tert-Butylphenyl)-4-(1H-imidazol-4-ylcarbonyl)piperazine] | 3.8 nM | – | – | – | – | –
CC(C)(C)c1ccccc1N1CCN(C(=O)c2ccc(-c3noc(=O)[nH]3)cc2)CC1 [Example 19, 3-(4-{[4-(2-tert-Butylphenyl)piperazin-1-yl]carbonyl}phenyl)-1,2,4-oxadiazol-5(4H)-one] | 49 nM | – | – | – | – | –
CC(C)(C)c1ccccc1N1CCN(C(=O)c2ccc(OCC(=O)O)cc2)CC1 [Example 24, (4-{[4-(2-tert-Butylphenyl)piperazin-1-yl]carbonyl}phenoxy)acetic acid] | – | 100.0 ± 36.4 % of initial/Control | 30.9 ± 2.7 % of initial/Control | 32.2 ± 2.2 % of initial/Control | 73.1 ± 25.6 % of initial/Control | 100%
CC(C)(C)c1ccccc1N1CCN(C(=O)c2ccc(SCC(=O)O)nc2)CC1 [Example 25, [(5-{[4-(2-tert-Butylphenyl)piperazin-1-yl]carbonyl}pyridin-2-yl)sulfanyl]acetic acid] | – | 100.0 ± 7.3 % of initial/Control | 45.0 ± 1.9 % of initial/Control | 57.6 ± 5.6 % of initial/Control | 75.8 ± 6.0 % of initial/Control | 100%
CC(C)(C)c1ccccc1N1CCN(C(=O)c2ccc(C(=O)O)cc2)CC1 [Example 34, 4-{[4-(2-tert-Butylphenyl)piperazin-1-yl]carbonyl}benzoic acid] | 480 nM | – | – | – | – | –
CC(C)(C)c1ccccc1N1CCN(C(=O)C(=O)NS(=O)(=O)NCC2CC2)CC1 [Example 39, 2-[4-(2-tert-Butylphenyl)piperazin-1-yl]-N-[(cyclopropylmethyl)sulfamoyl]-2-oxoacetamide] | 430 nM | 100.0 ± 5.8 % of initial/Control | 37.1 ± 1.9 % of initial/Control | 45.1 ± 6.2 % of initial/Control | 86.6 ± 12.4 % of initial/Control | 97%
CC(C)(C)c1ccccc1N1CCN(C(=O)c2ccc(OCC3CCNCC3)cc2)CC1 [Example 41, 1-(2-tert-Butylphenyl)-4-{[4-(piperidin-4-ylmethoxy)phenyl]carbonyl}piperazine] | 250 nM | – | – | – | – | –
CC(C)(C)c1ccccc1N1CCN(C(=O)CCC(=O)O)CC1 [Example 53, 4-(4-(2-tert-Butylphenyl)piperazin-1-yl)-4-oxobutanoic acid] | – | 100.0 ± 29.7 % of initial/Control | 39.9 ± 3.4 % of initial/Control | 30.2 ± 1.3 % of initial/Control | 93.6 ± 15.1 % of initial/Control | 100%
CC(C)(C)c1ccccc1N1CCN(C(=O)Nc2ccccc2)CC1 [Example 56, 4-(2-tert-Butylphenyl)-N-phenylpiperazine-1-carboxamide] | 58 nM | – | – | – | – | –
CC(C)(C)c1cc(Br)ccc1N1CCN(C(=O)C(=O)O)CC1 [Example 67, [4-(4-Bromo-2-tert-butylphenyl)piperazin-1-yl](oxo)acetic acid] | – | 100.0 ± 26.6 % of initial/Control | 44.8 ± 2.9 % of initial/Control | 40.3 ± 1.6 % of initial/Control | 94.9 ± 22.6 % of initial/Control | 100%
CC(C)(C)c1cc(Br)ccc1N1CCN(C(=O)CC(=O)O)CC1 [Example 69, 3-[4-(4-Bromo-2-tert-butylphenyl)piperazin-1-yl]-3-oxopropanoic acid] | 30 nM | 100.0 ± 13.8 % of initial/Control | 47.7 ± 2.7 % of initial/Control | 44.4 ± 0.7 % of initial/Control | 50.0 ± 2.4 % of initial/Control | 99%
CC(C)(C)c1ccccc1N1CCN(C(=O)C2(C(=O)O)CC2)CC1 [Example 71, 1-{[4-(2-tert-Butylphenyl)piperazin-1-yl]carbonyl}cyclopropanecarboxylic acid] | 150 nM | 100.0 ± 17.1 % of initial/Control | 51.2 ± 1.0 % of initial/Control | 56.7 ± 2.4 % of initial/Control | 120.9 ± 9.0 % of initial/Control | 100%
CC(C)(C)c1ccccc1N1CCN(C(=O)CC2NC(=O)NC2=O)CC1 (stereo not shown) [Example 90, 5-{2-[4-(2-tert-Butylphenyl)piperazin-1-yl]-2-oxoethyl}imidazolidine-2,4-dione] | 34 nM | – | – | – | – | –
CC(C)(C)c1ccccc1N1CCN(C(=O)C(O)CO)CC1 (stereo not shown) [Example 110, 3-[4-(2-tert-Butylphenyl)piperazin-1-yl]-3-oxopropane-1,2-diol] | 330 nM | – | – | – | – | –
